For series [1] the following is noted: in vivo.
From the text: Patients were given a single dose of 1-4 milligrams per kilogram body weight in the form of an injection through an IV catheter (a tube with a needle attached) once a day for 3 days in a row.
Series [2] in a line: Storage stability of bulk artesunic acid. Type of series: physicochemical. Particulars: 20 months at 25° C. The procedure: Six thousand dry-filled vials of formulated artesunate for clinical use have been packaged. One thousand of the vials have been reserved for long-term stability testing under various conditions, including elevated temperatures and humidities, to test the integrity and durability of the packaging system. As packaged for clinical use, 20 ml vials have been dry-filled with 110 mg of ethylene oxide sterilized artesunate, stoppered, and sealed.
The sterilized bulk drug of the invention has been tested and is still undergoing stability studies. […] The stability studies are still ongoing.

For series [3] the following is noted: stored under nitrogen @ 25° C., studies at Knoll; cited from earlier work.

For `C[C@H]1[C@H](OC(=O)CCC(=O)O)O[C@@H]2O[C@@]3(C)CC[C@H]4[C@H](C)CC[C@@H]1[C@@]24OO3` (relative stereo) [artesunic acid, butanedioic Acid, [3R-(3α,5a,6,8a,9α,10α,12,12a R*)]-mono(decahydro-3,6,9-trimethyl-3,12-epoxy-12H-pyrano[4,3-j]-1,2-benzodioxepin-10-yl)ester], the adverse effects entry in series [1] is listed as “no adverse effects”. In addition, the “degradation of sterilized bulk drug on storage” value in series [2] is given as “no evidence of degradation”. The “stability of bulk artesunic acid” value in series [3] is “at least two years stability”.
